From patent US20240270762A1, “PENICILLIN-BINDING PROTEIN INHIBITORS” (priority 2021, published 2024)
pEC50, pIC50: −log10 of the molar value. ≈ marks a conversion by molar mass, not a printed value.

Assays:
[1] = target: T1, PBP3 from Escherichia coli (K-12) (Escherichia coli, UniProt P0AD68); assay: Bocillin-FL fluorescence polarization competition binding, E. coli PBP3
T1 construct: made in house
Procedure, shortened: (§1)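 Purified PBP was preincubated with inhibitor (E. coli PBP3 1.5 μM, 30 min; P. aeruginosa PBP3 0.75 μM, A. baumannii PBP3 0.2 μM and PBP1a 1 μM, 15 min), then Bocillin-FL (0.1 μM; 0.05 μM for PBP1a) added and FP read up to 60 min. EC50 = 50% loss of bound probe.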

[2] = target: T2, PBP1a from Acinetobacter baumannii (ATCC 19606) (Acinetobacter baumannii, UniProt A0ABX6CK30); assay: Bocillin-FL fluorescence polarization competition binding, A. baumannii PBP1a; details: fluorescence polarization competition binding assay using Bocillin-FL; read-out: A. baumannii PBP1a Potency
T2 sequence (A0ABX6CK30 1-851): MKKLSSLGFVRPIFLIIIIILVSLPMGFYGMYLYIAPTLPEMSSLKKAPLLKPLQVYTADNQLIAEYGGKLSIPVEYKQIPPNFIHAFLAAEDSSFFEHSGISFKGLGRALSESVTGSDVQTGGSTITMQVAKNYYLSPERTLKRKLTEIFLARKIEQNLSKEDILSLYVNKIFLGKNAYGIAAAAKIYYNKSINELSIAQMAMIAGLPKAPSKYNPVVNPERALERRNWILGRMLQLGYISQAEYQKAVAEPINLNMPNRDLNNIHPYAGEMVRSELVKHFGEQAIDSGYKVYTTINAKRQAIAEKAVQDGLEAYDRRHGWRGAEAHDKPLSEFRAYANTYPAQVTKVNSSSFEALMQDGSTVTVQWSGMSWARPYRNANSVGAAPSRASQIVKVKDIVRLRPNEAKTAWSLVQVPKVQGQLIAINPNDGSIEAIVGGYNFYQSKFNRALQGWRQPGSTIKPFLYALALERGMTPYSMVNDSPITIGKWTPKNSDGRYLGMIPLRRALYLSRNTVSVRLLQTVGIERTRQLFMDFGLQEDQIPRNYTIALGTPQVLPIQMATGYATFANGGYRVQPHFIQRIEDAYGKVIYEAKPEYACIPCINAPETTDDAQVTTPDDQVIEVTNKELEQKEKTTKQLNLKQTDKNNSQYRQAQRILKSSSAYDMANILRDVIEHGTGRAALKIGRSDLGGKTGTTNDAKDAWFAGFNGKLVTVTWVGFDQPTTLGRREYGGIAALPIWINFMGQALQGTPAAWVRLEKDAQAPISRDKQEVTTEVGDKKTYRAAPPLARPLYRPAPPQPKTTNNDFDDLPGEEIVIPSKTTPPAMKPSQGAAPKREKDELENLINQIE
Procedure, shortened: as §1

A. baumannii ATCC 17978 = assay: microbe, parasite or virus in culture; type: cell-based; details: Acinetobacter baumannii, ATCC17978, read-out: MIC, A. baumannii ATCC 17978
A. baumannii ATCC 19606 = assay: microbe, parasite or virus in culture; type: cell-based; details: Acinetobacter baumannii, ATCC19606, read-out: MIC, A. baumannii ATCC 19606
[3] = system: P. aeruginosa (ΔmexAB-oprM); assay: Broth microdilution MIC in iron-depleted CAMHB (IDM); type: cell-based; details: Pseudomonas aeruginosa; iron-depleted CAMHB (IDM); […]; read-out: Minimum inhibitory concentration, P. aeruginosa ΔmexAB-oprM
A. baumannii CDC-0033 = assay: microbe, parasite or virus in culture; type: cell-based; details: Acinetobacter baumannii, CDC0033, read-out: MIC, A. baumannii CDC-0033
N. gonorrhoeae WHO K = assay: Liquid broth MIC in Fastidious broth; details: Neisseria gonorrhoeae, read-out: Minimum Inhibitory Concentration, WHO K
N. gonorrhoeae WHO Z = assay: Liquid broth MIC in Fastidious broth; details: Neisseria gonorrhoeae, read-out: Minimum Inhibitory Concentration, WHO Z

T1 sequence (P0AD68 1-577): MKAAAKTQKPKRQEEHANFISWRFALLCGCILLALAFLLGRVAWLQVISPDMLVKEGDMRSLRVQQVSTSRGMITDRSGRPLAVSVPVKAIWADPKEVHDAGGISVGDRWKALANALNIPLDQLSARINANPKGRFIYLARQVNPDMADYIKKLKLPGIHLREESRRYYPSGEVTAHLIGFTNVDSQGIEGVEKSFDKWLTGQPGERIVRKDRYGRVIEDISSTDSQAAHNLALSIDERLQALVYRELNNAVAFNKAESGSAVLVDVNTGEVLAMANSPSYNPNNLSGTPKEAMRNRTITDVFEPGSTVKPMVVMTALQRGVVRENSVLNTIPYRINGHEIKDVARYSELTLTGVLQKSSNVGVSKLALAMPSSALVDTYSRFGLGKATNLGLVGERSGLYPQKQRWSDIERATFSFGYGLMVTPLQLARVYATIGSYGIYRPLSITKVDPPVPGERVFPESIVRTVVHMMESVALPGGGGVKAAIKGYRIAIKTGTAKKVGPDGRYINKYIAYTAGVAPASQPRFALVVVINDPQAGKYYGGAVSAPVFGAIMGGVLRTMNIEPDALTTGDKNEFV

## O=C(NCCS(=O)(=O)N1CCN(C(=O)NC(C(=O)N[C@H]2Cc3ccc(F)c(C(=O)O)c3OB2O)c2cc(F)c(O)c(O)c2Cl)C1=O)c1cccc(O)c1 (stereo partly drawn) [Example 261, (3R)-3-(2-(2-chloro-5-fluoro-3,4-dihydroxyphenyl)-2-(3-((2-(3-hydroxybenzamido)ethyl)sulfonyl)-2-oxoimidazolidine-1-carboxamido)acetamido)-7-fluoro-2-hydroxy-3,4-dihydro-2H-benzo[e][1,2]oxaborinine-8-carboxylic acid]
[1]
  pEC50: > 5.00
[2]
  pIC50: < 3.60
A. baumannii ATCC 17978
  MIC: < 1 µg/mL
A. baumannii ATCC 19606
  MIC: < 1 µg/mL
[3]
  MIC: < 1 µg/mL
A. baumannii CDC-0033
  MIC: 2 to 4 µg/mL (≈ 2.56 to 5.12 µM)
N. gonorrhoeae WHO K
  MIC: > 64 µg/mL
N. gonorrhoeae WHO Z
  MIC: 4 to 8 µg/mL (≈ 5.12 to 10.2 µM)

## O=C(NCCS(=O)(=O)N1CCN(C(=O)NC(C(=O)N[C@H]2Cc3ccc(F)c(C(=O)O)c3OB2O)c2cc(F)c(O)c(O)c2Cl)C1=O)c1cccnc1 (stereo partly drawn) [Example 262, (3R)-3-(2-(2-chloro-5-fluoro-3,4-dihydroxyphenyl)-2-(3-((2-(nicotinamido)ethyl)sulfonyl)-2-oxoimidazolidine-1-carboxamido)acetamido)-7-fluoro-2-hydroxy-3,4-dihydro-2H-benzo[e][1,2]oxaborinine-8-carboxylic acid]
[1]
  pEC50: > 5.00
[2]
  pIC50: < 3.60
A. baumannii ATCC 17978
  MIC: < 1 µg/mL
A. baumannii ATCC 19606
  MIC: < 1 µg/mL
[3]
  MIC: < 1 µg/mL
A. baumannii CDC-0033
  MIC: 2 to 4 µg/mL (≈ 2.61 to 5.22 µM)
N. gonorrhoeae WHO K
  MIC: > 64 µg/mL
N. gonorrhoeae WHO Z
  MIC: 16 to 32 µg/mL (≈ 20.9 to 41.7 µM)

## O=C(NCCS(=O)(=O)N1CCN(C(=O)N[C@H](C(=O)N[C@H]2Cc3ccc(F)c(C(=O)O)c3OB2O)c2cc(F)c(O)c(O)c2Cl)C1=O)c1nccs1 [Example 263, (R)-3-((S)-2-(2-chloro-5-fluoro-3,4-dihydroxyphenyl)-2-(2-oxo-3-((2-(thiazole-2-carboxamido)ethyl)sulfonyl)imidazolidine-1-carboxamido)acetamido)-7-fluoro-2-hydroxy-3,4-dihydro-2H-benzo[e][1,2]oxaborinine-8-carboxylic acid]
[1]
  pEC50: < 3.60
[2]
  pIC50: < 3.60
A. baumannii ATCC 17978
  MIC: < 1 µg/mL
A. baumannii ATCC 19606
  MIC: 8 to 16 µg/mL (≈ 10.4 to 20.7 µM)
[3]
  MIC: 8 to 16 µg/mL (≈ 10.4 to 20.7 µM)
A. baumannii CDC-0033
  MIC: 32 to 64 µg/mL (≈ 41.4 to 82.8 µM)
N. gonorrhoeae WHO K
  MIC: > 64 µg/mL
N. gonorrhoeae WHO Z
  MIC: > 64 µg/mL

## O=C(NCCS(=O)(=O)N1CCN(C(=O)N[C@@H](C(=O)N[C@H]2Cc3ccc(F)c(C(=O)O)c3OB2O)c2cc(F)c(O)c(O)c2Cl)C1=O)c1nccs1 [Example 264, (R)-3-((R)-2-(2-chloro-5-fluoro-3,4-dihydroxyphenyl)-2-(2-oxo-3-((2-(thiazole-2-carboxamido)ethyl)sulfonyl)imidazolidine-1-carboxamido)acetamido)-7-fluoro-2-hydroxy-3,4-dihydro-2H-benzo[e][1,2]oxaborinine-8-carboxylic acid]
[1]
  pEC50: > 5.00
[2]
  pIC50: < 3.60
A. baumannii ATCC 17978
  MIC: < 1 µg/mL
A. baumannii ATCC 19606
  MIC: < 1 µg/mL
[3]
  MIC: < 1 µg/mL
A. baumannii CDC-0033
  MIC: < 1 µg/mL
N. gonorrhoeae WHO K
  MIC: 16 to 32 µg/mL (≈ 20.7 to 41.4 µM)
N. gonorrhoeae WHO Z
  MIC: 4 to 8 µg/mL (≈ 5.18 to 10.4 µM)

## O=C(O)c1c(F)ccc2c1OB(O)[C@@H](NC(=O)C(NC(=O)N1CCN(S(=O)(=O)CCNC(=O)[C@@H]3CCCN3)C1=O)c1cc(F)c(O)c(O)c1Cl)C2 (stereo partly drawn) [Example 265, (3R)-3-(2-(2-chloro-5-fluoro-3,4-dihydroxyphenyl)-2-(2-oxo-3-((2-((S)-pyrrolidine-2-carboxamido)ethyl)sulfonyl)imidazolidine-1-carboxamido)acetamido)-7-fluoro-2-hydroxy-3,4-dihydro-2H-benzo[e][1,2]oxaborinine-8-carboxylic acid]
[1]
  pEC50: 4.30 to 5.00
[2]
  pIC50: < 3.60
A. baumannii ATCC 17978
  MIC: < 1 µg/mL
A. baumannii ATCC 19606
  MIC: < 1 µg/mL
[3]
  MIC: < 1 µg/mL
A. baumannii CDC-0033
  MIC: 8 to 16 µg/mL (≈ 10.5 to 21.1 µM)
N. gonorrhoeae WHO K
  MIC: > 64 µg/mL
N. gonorrhoeae WHO Z
  MIC: 4 to 8 µg/mL (≈ 5.27 to 10.5 µM)

## O=C(NCCS(=O)(=O)N1CCN(C(=O)NC(C(=O)N[C@H]2Cc3ccc(F)c(C(=O)O)c3OB2O)c2cc(F)c(O)c(O)c2Cl)C1=O)Nc1cccc(O)c1 (stereo partly drawn) [Example 266, (3R)-3-(2-(2-chloro-5-fluoro-3,4-dihydroxyphenyl)-2-(3-((2-(3-(3-hydroxyphenyl)ureido)ethyl)sulfonyl)-2-oxoimidazolidine-1-carboxamido)acetamido)-7-fluoro-2-hydroxy-3,4-dihydro-2H-benzo[e][1,2]oxaborinine-8-carboxylic acid]
[1]
  pEC50: > 5.00
[2]
  pIC50: < 3.60
A. baumannii ATCC 17978
  MIC: < 1 µg/mL
A. baumannii ATCC 19606
  MIC: < 1 µg/mL
[3]
  MIC: < 1 µg/mL
A. baumannii CDC-0033
  MIC: 2 to 4 µg/mL (≈ 2.51 to 5.02 µM)
N. gonorrhoeae WHO K
  MIC: 16 to 32 µg/mL (≈ 20.1 to 40.2 µM)
N. gonorrhoeae WHO Z
  MIC: 4 to 8 µg/mL (≈ 5.02 to 10 µM)

## O=C(NCCS(=O)(=O)N1CCN(C(=O)N[C@@H](C(=O)N[C@H]2Cc3ccc(F)c(C(=O)O)c3OB2O)c2cc(F)c(O)c(O)c2Cl)C1=O)Nc1cccnc1 [Example 267, (R)-3-((R)-2-(2-chloro-5-fluoro-3,4-dihydroxyphenyl)-2-(2-oxo-3-((2-(3-(pyridin-3-yl)ureido)ethyl)sulfonyl)imidazolidine-1-carboxamido)acetamido)-7-fluoro-2-hydroxy-3,4-dihydro-2H-benzo[e][1,2]oxaborinine-8-carboxylic acid]
[1]
  pEC50: > 5.00
[2]
  pIC50: < 3.60
A. baumannii ATCC 17978
  MIC: < 1 µg/mL
A. baumannii ATCC 19606
  MIC: < 1 µg/mL
[3]
  MIC: < 1 µg/mL
A. baumannii CDC-0033
  MIC: 8 to 16 µg/mL (≈ 10.2 to 20.5 µM)
N. gonorrhoeae WHO K
  MIC: > 64 µg/mL
N. gonorrhoeae WHO Z
  MIC: 4 to 8 µg/mL (≈ 5.12 to 10.2 µM)

## O=C(NCCCS(=O)(=O)N1CCN(C(=O)NC(C(=O)N[C@H]2Cc3ccc(F)c(C(=O)O)c3OB2O)c2cc(F)c(O)c(O)c2Cl)C1=O)c1ccccc1 (stereo partly drawn) [Example 268, (3R)-3-(2-(3-((3-benzamidopropyl)sulfonyl)-2-oxoimidazolidine-1-carboxamido)-2-(2-chloro-5-fluoro-3,4-dihydroxyphenyl)acetamido)-7-fluoro-2-hydroxy-3,4-dihydro-2H-benzo[e][1,2]oxaborinine-8-carboxylic acid]
[1]
  pEC50: > 5.00
[2]
  pIC50: < 3.60
A. baumannii ATCC 17978
  MIC: < 1 µg/mL
A. baumannii ATCC 19606
  MIC: < 1 µg/mL
[3]
  MIC: < 1 µg/mL
A. baumannii CDC-0033
  MIC: 8 to 16 µg/mL (≈ 10.3 to 20.5 µM)
N. gonorrhoeae WHO K
  MIC: > 64 µg/mL
N. gonorrhoeae WHO Z
  MIC: 16 to 32 µg/mL (≈ 20.5 to 41 µM)

## O=C(NCCCS(=O)(=O)N1CCN(C(=O)NC(C(=O)N[C@H]2Cc3ccc(F)c(C(=O)O)c3OB2O)c2cc(F)c(O)c(O)c2Cl)C1=O)c1ccc(O)cc1 (stereo partly drawn) [Example 269, (3R)-3-(2-(2-chloro-5-fluoro-3,4-dihydroxyphenyl)-2-(3-((3-(4-hydroxybenzamido)propyl)sulfonyl)-2-oxoimidazolidine-1-carboxamido)acetamido)-7-fluoro-2-hydroxy-3,4-dihydro-2H-benzo[e][1,2]oxaborinine-8-carboxylic acid]
[1]
  pEC50: > 5.00
[2]
  pIC50: < 3.60
A. baumannii ATCC 17978
  MIC: < 1 µg/mL
A. baumannii ATCC 19606
  MIC: < 1 µg/mL
[3]
  MIC: < 1 µg/mL
A. baumannii CDC-0033
  MIC: 8 to 16 µg/mL (≈ 10.1 to 20.1 µM)
N. gonorrhoeae WHO K
  MIC: > 64 µg/mL
N. gonorrhoeae WHO Z
  MIC: 16 to 32 µg/mL (≈ 20.1 to 40.2 µM)

## O=C(NCCCS(=O)(=O)N1CCN(C(=O)N[C@H](C(=O)N[C@H]2Cc3ccc(F)c(C(=O)O)c3OB2O)c2cc(F)c(O)c(O)c2Cl)C1=O)c1cccc(O)c1 [Example 270, (R)-3-((S)-2-(2-chloro-5-fluoro-3,4-dihydroxyphenyl)-2-(3-((3-(3-hydroxybenzamido)propyl)sulfonyl)-2-oxoimidazolidine-1-carboxamido)acetamido)-7-fluoro-2-hydroxy-3,4-dihydro-2H-benzo[e][1,2]oxaborinine-8-carboxylic acid]
[1]
  pEC50: 3.60 to 4.30
[2]
  pIC50: < 3.60
A. baumannii ATCC 17978
  MIC: < 1 µg/mL
A. baumannii ATCC 19606
  MIC: 2 to 4 µg/mL (≈ 2.51 to 5.03 µM)
[3]
  MIC: < 1 µg/mL
A. baumannii CDC-0033
  MIC: 32 to 64 µg/mL (≈ 40.2 to 80.4 µM)
N. gonorrhoeae WHO K
  MIC: > 64 µg/mL
N. gonorrhoeae WHO Z
  MIC: > 64 µg/mL
